US20220218833A1, “PLATELET-FACILITATED DELIVERY OF THERAPEUTIC COMPOUNDS” (CSTS Health Care Inc., priority 2019, published 2022)
“Also recorded” adds a separate entry of the source. Where no end group is shown, it is not given here.

What was measured:
[1] = test system: platelets; assay: Cargo loading into platelets contacted with a non-specific GAG inhibitor; type: cell-based; settings: platelets contacted with the inhibitor
From the text: The present invention is based, in part, on the discovery that cargo can be loaded in alpha granules and that this loading is not receptor-mediated. Instead, cargo loading into platelets, and specifically into their alpha granules, relies on the binding to glycosaminoglycans (GAG) in the alpha granules of the platelets.

[2] = test system: isolated platelets; assay: Platelet loading of Alexa647-labeled peptides, decrease in supernatant fluorescence; type: cell-based; settings: for absorbance of supernatant, complete versus loaded measurements (loading into platelets): Alexa647-labeled peptides co-incubated with isolated platelets at 37° C. for one hour, FIG. 1A; for loading of attached cargo into platelets, loaded condition normalized to complete condition: Alexa647 as cargo, FIG. 1B
Description: Alexa647-labeled GAG-binding peptides, identified in FIG. 1A and FIG. 1B as PAL1 and PAL2 and an Alexa647-labeled control peptide (a charge-free ligand (CFL) which served as a negative control), were tested for their binding affinity for glycosaminoglycans, such as chondroitin sulfate, and their abilities to enter platelets.
Alexa647-labeled peptides or Alexa647 alone were co-incubated with isolated platelets at 37° C. for one hour to allow for platelet loading. The respective platelet-loading ability was indicated by a decrease in fluorescence in supernatant following the incubation. For controls, identical experiments were performed without the incubation period (noted as “complete” in the figure). Platelets following co-incubation were then centrifuged at 800 g for 10-minutes to separate platelets from supernatant (noted as “loaded” in the figure).
FIG. 1B represents the data in FIG. 1A normalized for each peptide experiment, i.e., normalization of a loaded condition to its complete condition.

[3] = test system: alpha granules of platelets; assay: Confocal microscopy of Alexa647-labeled peptides with PF4 alpha granule marker; type: cell-based; settings: for loading of attached cargo into alpha granules of platelets (Alexa647 intensities for each ROI): ROIs selected on PF4 intensity, FIG. 2B
Description: To confirm that the Alexa647-labeled GAG-binding peptides were loaded into alpha granules of platelets, confocal microscopy was used. The platelets that were centrifuged in the experiments of FIG. 1A and FIG. 1B, were fixed in 2% paraformaldehyde and settled onto glass coverslips. After permeabilization, immunofluorescence staining was performed against PF4, which is a marker for alpha granules of platelets. Platelets were stained with Alexa568-secondary antibody. Images were collected through a Nikon-A1 laser-scanning microscope equipped with a 60× oil objective lens.
FIG. 2A are representative images with PF4 staining shown in red (left column) and the Alexa647 signal (from the free Alexa647, Alexa647-labeled GAG-binding peptide, or Alexa647-labeled CFL; middle column) shown in purple. Images were only adjusted for brightness and contrast for display. n>5 images were acquired for each experiment and regions of interest (ROIs) were selected based on PF4 intensity.
The Alexa647 intensities for each ROI were measured using ImageJ and plotted in box and whisker graph using Prism 8.

[4] = Affinity chromatography of peptides; type: binding; settings: FIG. 4
Description: Additionally, the binding affinities for the two illustrative GAG-binding peptides and the CFL to heparan sulfate (HS) was determined using affinity chromatography.

Molecule | amount of cargos loaded into platelets [1] | absorbance of supernatant, complete versus loaded measurements (loading into platelets) [2] | loading of attached cargo into platelets, loaded condition normalized to complete condition [2] | loading of attached cargo into alpha granules of platelets (Alexa647 intensities for each ROI) [3] | colocalization of alpha granule marker PF4 and Alexa647 signal ([3]; merged confocal images, FIG. 2A) | binding to heparan sulfate (HS) [4] | relative affinity for HS, PAL2 versus PAL1 [4]
Cc1cc(N)c2cc(NC(=O)Nc3ccc4nc(C)cc(N)c4c3)ccc2n1 [Surfen] | reduced amounts of cargos are loaded into platelets | – | – | – | – | – | –
CFL: control peptide, a charge-free ligand, SEQ ID NO: 14, negative control (EGGIWFPYGGF) [reference compound] | – | did not change | unable to direct loading of the cargo into platelets | do not load into platelets | Co-localization was not observed | did not bind to HS | –
ERRIWFPYRRF (SEQ ID NO: 1) (also: Alexa647 label) [PAL1] | – | decrease in absorbance | facilitates loading of an attached cargo into platelets | facilitates loading of an attached cargo into alpha granules of platelets | – | – | –
RFRWPYRIREF (SEQ ID NO: 2) (also: Alexa647 label) [PAL2] | – | decrease in absorbance | facilitates loading of an attached cargo into platelets | facilitates loading of an attached cargo into alpha granules of platelets | – | – | greater affinity for HS than PAL′; also recorded: binds HS tighter than PALL
